Each structure is given as a SMILES string.

The test system of experiment [1] is IL-12. The experiment is described as follows: Human in vitro assay: inhibition of IL-12 production in IFNγ/LPS- or IFNγ/SAC-stimulated human PBMC or THP-1 cells (ELISA). The experiment is classed as cell-based. The settings on record: read-out: IC50 Range (representative in vitro IC50 data). In short, it runs like this:
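PBMC (5×10^5 cells/well) primed with IFNγ 30 U/mL for 22 h then LPS 1 μg/mL, or IFNγ 100 U/mL then SAC 0.01%; THP-1 primed with IFNγ 100 U/mL for 22 h then SAC 0.025%, with compound in 0.25% DMSO. Supernatant IL-12 p70/p40 measured by sandwich ELISA after 18 h; IC50 derived; viability by MTS.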
(In an ELISA, binding on a coated surface is turned into a signal by an enzyme label.)

Experiment [2] relates to adjuvant arthritis (AA). The experiment is described as follows: Treatment of adjuvant arthritis in rats. Type of experiment: in vivo, rat. The settings on record: female Lewis rats, oral once a day for 7 days (day 7-14) after MTB induction, vs vehicle. As for the experimental part:
Treatment of adjuvant arthritis in rats: Adjuvant arthritis (AA) was induced in female Lewis rats by the intracutaneous injection (base of the tail) of 0.1 mL of a 10 mg/mL bacterial suspension made from ground, heat-killed Mycobacterium tuberculosis (MTB) H37Ra suspended in incomplete Freund's adjuvant. Rats were given Compound 1 or vehicle orally once a day for 7 days (day 7-14), starting day 7 after mycobacterium induction. The development of polyarthritis was monitored daily by macroscopic inspection and assignment of an arthritis index to each animal, during the critical period (days 10 to 25 post-immunization).
The intensity of polyarthritis was scored according to the following scheme: (a) Grade each paw from 0 to 3 based on erythema, swelling, and deformity of the joints: 0 for no erythema or swelling; 0.5 if swelling is detectable in at least one joint; 1 for mild swelling and erythema; 2 for swelling and erythema of both tarsus and carpus; and 3 for ankylosis and bony deformity. Maximum score for all 4 paws was thus 12. […]
Experiments with the AA model were repeated four times. […] The arthritis score used in this model was a reflection of the inflammatory state of the structures monitored and the results therefore show the ability of the test compound to provide relief for this aspect of the pathology.

The subject of experiment [3] is IL-12. The experiment is described as follows: Murine in vitro assay: IL-12 production in IFNγ/SAC-stimulated splenocytes of immunized Balb/c mice (ELISA). Type of experiment: cell-based. The settings on record: Mus musculus, Splenocyte; Balb/c splenocytes stimulated with IFNγ and SAC. As for the experimental part:
Murine In Vitro Assay. Balb/c mice (Taconic, Germantown, N.Y.) were immunized with Mycobacterium tuberculosis H37Ra (Difco, Detroit, Mich.). The splenocytes were harvested 5 days and prepared in RPMI medium supplemented with 10% FCS and antibiotics in a flat bottom 96-well plate with 1×10^6 cells/well. The splenocytes were then stimulated with a combination of IFNγ (60 ng/mL) and SAC (0.025%) (LPS (20 μg/mL can be used instead of SAC)) in the presence of a test compound. Cell-free supernatants were taken 24 h later for the measurement of cytokines. The preparation of compound and the assessment of cell viability were carried out as described above. […] Mouse IL-12 p70, IL-10, IL-1β, and TNFα are measured using ELISA kits from Endogen, according to the manufacturer's instructions.

For orientation: IC50 means the concentration needed to halve the response being measured. As to `Cc1[nH]c2ccc(NC(=O)c3cc(OCCN4CCOCC4)nc(N4CCOCC4)n3)cc2c1C` [Compound 1, 2-Morpholin-4-yl-6-(2-morpholin-4-yl-ethoxy)-pyrimidine-4-carboxylic acid (2,3-dimethyl-1H-indol-5-yl)-amide], the IC50 in experiment [1] is below 1 µM. Moreover, the development of polyarthritis entry in experiment [2] is on record as “delayed the development of polyarthritis in a dose-dependent manner”. Moreover, the “arthritic score (arthritic index)” value in experiment [2] (FIG. 1) is reported as “reduced the arthritic score”.

As for `Cc1[nH]c2ccc(NC(=O)c3cc(OCCN)nc(N4CCOCC4)n3)cc2c1C` [Compound 273, 6-(2-Amino-ethoxy)-2-morpholin-4-yl-pyrimidine-4-carboxylic acid (2,3-dimethyl-1H-indol-5-yl)-amide], the half-inhibitory concentration (IC50) in experiment [1] is below 1 µM; in experiment [3] it was 1.25 µM.

Take `Cc1cccc(OC(=O)Nc2cc(OCCc3ccccn3)nc(N3CCOCC3)n2)c1` [Compound 83, [2-Morpholin-4-yl-6-(2-pyridin-2-yl-ethoxy)-pyrimidin-4-yl]-carbamic acid m-tolyl ester]: the IC50 in experiment [1] was at least 1 µM.

`Cc1[nH]c2ccc(NC(=O)c3cc(NCC(=O)N4CCc5ccccc5C4)nc(N4CCOCC4)n3)cc2c1C` [Compound 103, 6-[2-(3,4-Dihydro-1H-isoquinolin-2-yl)-2-oxo-ethylamino]-2-morpholin-4-yl-pyrimidine-4-carboxylic acid (2,3-dimethyl-1H-indol-5-yl)-amide]: the IC50 in experiment [1] was below 1 µM.

For the compound `COCCN(C)c1cc(C(=O)Nc2cccc(-c3csc(C)n3)c2)nc(N2CCOCC2)n1` [Compound 245, 6-[(2-Methoxy-ethyl)-methyl-amino]-2-morpholin-4-yl-pyrimidine-4-carboxylic acid [3-(2-methyl-thiazol-4-yl)-phenyl]-amide], the IC50 in experiment [1] was below 1 µM.

`O=C1COc2ccc(NC(=O)c3cc(OCCN4CCOCC4)nc(N4CCOCC4)n3)cc2N1` [Compound 199, 2-morpholino-6-(2-morpholinoethoxy)-N-(3-oxo-3,4-dihydro-2H-benzo[b][1,4]oxazin-6-yl)pyrimidine-4-carboxamide]: the IC50 in experiment [1] was at least 1 µM.

Take `O=C(Nc1nnc(N2CCOCC2)[nH]1)c1cc(OCCN2CCOCC2)nc(N2CCOCC2)n1` [Compound 293, 2-Morpholin-4-yl-6-(2-morpholin-4-yl-ethoxy)-pyrimidine-4-carboxylic acid (5-morpholin-4-yl-4H-[1,2,4]triazol-3-yl)-amide]: the IC50 in experiment [1] was at least 1 µM.

Turning to `CC(=O)N1CCN(c2cc(C(=O)Nc3ccc4[nH]cc(C)c4c3)nc(N3CCOCC3)n2)CC1` [Compound 261, 6-(4-acetylpiperazin-1-yl)-N-(3-methyl-1H-indol-5-yl)-2-morpholinopyrimidine-4-carboxamide], in experiment [1], the IC50 is below 1 µM.

On to `Cc1cccc(NNC(=O)c2cc(OCCN3CCOCC3)nc(N3CCOCC3)c2)c1` [Compound 82, 2-Morpholin-4-yl-6-(2-morpholin-4-yl-ethoxy)-isonicotinic acid N′-m-tolyl-hydrazide], for which the IC50 in experiment [1] is at least 1 µM.

For the compound `Cc1[nH]c2ccc(NC(=O)c3cc(N4CCN(CCO)CC4)nc(N4CCOCC4)n3)cc2c1C` [Compound 94, 6-[4-(2-Hydroxy-ethyl)-piperazin-1-yl]-2-morpholin-4-yl-pyrimidine-4-carboxylic acid (2,3-dimethyl-1H-indol-5-yl)-amide], the 50% inhibitory concentration (IC50) in experiment [1] was below 1 µM.

For `CCOC(=O)C1CCN(c2cc(C(=O)Nc3ccc4[nH]c(C)c(C)c4c3)nc(N3CCOCC3)c2)CC1` [Compound 176, 2′-(2,3-Dimethyl-1H-indol-5-ylcarbamoyl)-6′-morpholin-4-yl-3,4,5,6-tetrahydro-2H-[1,4′]bipyridinyl-4-carboxylic acid ethyl ester], in experiment [1], the IC50 was below 1 µM.

Regarding `O=C(Nc1ccc2cc[nH]c2c1)c1cc(OCCN2CCOCC2)nc(N2CCOCC2)n1` [Compound 275, 2-Morpholin-4-yl-6-(2-morpholin-4-yl-ethoxy)-pyrimidine-4-carboxylic acid (1H-indol-6-yl)-amide], the IC50 in experiment [1] was below 1 µM.

The record behind these values is patent publication US20060223996A1, “IL-12 modulatory compounds” (Synta Pharmaceuticals Corp., priority 2004, published 2006).
